Key:
PC-3 (Prostate) = assay: WST-1 anticancer cell proliferation assay, PC-3; assay type: cell-based; settings: 72 hours
Experimental: (§1) Bioactivity of the above-described compounds has been verified by an anticancer cell proliferation assay using the WST-1 (4-[3-(4-iodophenyl)-2-(4-nitrophenyl)-2H-5-tetrazolio]-1, 3-benzene disulfonate) colorimetric assay by Roche Life Sciences®. Anticancer activity was tested against several standard cancer cell lines including brain, breast, Kaposi sarcoma, leukemia, lung, melanoma, tenosynovial giant cell tumor, ovarian, pancreatic, colon and prostate cancer. Cells were trypsinized and plated into 96 well plates in 50 μl of media and incubated overnight. The next day approximately 18 hours after plating, 50 μl of media containing the required flavonoid-based pharmaceutical composition was added per well. Cells were plated at a density so that 72 hours post drug addition, the cells will be in log phase (500)-2000 cells/well). The compounds and extracts were solubilized in Dimethyl sulfoxide (DMSO). The cells are allowed to proliferate for 72 hours 37° C. in humidified atmosphere of 5% CO2. The experiment is terminated using WST-1 (Roche®) 10 μl per well and absorbance is read at 450 nm %690 nm. The effect of drugs on growth is assessed as percent of cell viability. The IC50 values were determined from the extract dose versus control growth curves using Graphpad Prism® software. All experiments were carried out in duplicate and the mean results determined.

IGROV-1 (Ovarian) = assay: WST-1 anticancer cell proliferation assay, IGROV-1; assay type: cell-based; settings: 72 hours
Experimental: as §1

MiaPaca-2 (Pancreatic) = assay: WST-1 anticancer cell proliferation assay, MiaPaca-2; assay type: cell-based; settings: 72 hours
Experimental: as §1

A498 (Kidney) = assay: WST-1 anticancer cell proliferation assay, A498; assay type: cell-based; settings: 72 hours
Experimental: as §1

RL (Lymphoma) = assay: WST-1 anticancer cell proliferation assay, RL; assay type: cell-based; settings: 72 hours
Experimental: as §1

DLD-1 (Colon) = assay: WST-1 anticancer cell proliferation assay, DLD-1; assay type: cell-based; settings: 72 hours
Experimental: as §1

UACC-62 (Melanoma) = assay: WST-1 anticancer cell proliferation assay, UACC-62; assay type: cell-based; settings: 72 hours
Experimental: as §1

A549 (Lung) = assay: WST-1 anticancer cell proliferation assay, A549; assay type: cell-based; settings: 72 hours
Experimental: as §1

COLO-205 (Colon) = assay: WST-1 anticancer cell proliferation assay, COLO-205; assay type: cell-based; settings: 72 hours
Experimental: as §1

MCF-7 (Breast) = assay: WST-1 anticancer cell proliferation assay, MCF-7; assay type: cell-based; settings: 72 hours
Experimental: as §1

MMP-7 = MMP-7 (Homo sapiens, UniProt P09237); assay: Inhibition of matrix metalloproteinase, MMP-7; assay type: biochemical; settings: Table 3 Matrix metalloproteinase
MMP-7, sequence (P09237 95-267): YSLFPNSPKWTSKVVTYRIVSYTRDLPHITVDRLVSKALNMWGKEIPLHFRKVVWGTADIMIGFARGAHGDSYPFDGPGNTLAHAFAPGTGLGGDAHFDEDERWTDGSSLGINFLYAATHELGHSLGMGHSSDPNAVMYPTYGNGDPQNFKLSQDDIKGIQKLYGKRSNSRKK
Source text: (§2) Inhibition of Sirtuins, Matrix Metalloproteinase, Bromodomains was Also Confirmed Using Standard Protocols and the Results are Present in Table 2.

BRD2 = BRD2 (Homo sapiens, UniProt P25440); assay: Inhibition of bromodomains, BRD2; assay type: binding; settings: Table 3 Bromodomain
BRD2, sequence (P25440 whole entry): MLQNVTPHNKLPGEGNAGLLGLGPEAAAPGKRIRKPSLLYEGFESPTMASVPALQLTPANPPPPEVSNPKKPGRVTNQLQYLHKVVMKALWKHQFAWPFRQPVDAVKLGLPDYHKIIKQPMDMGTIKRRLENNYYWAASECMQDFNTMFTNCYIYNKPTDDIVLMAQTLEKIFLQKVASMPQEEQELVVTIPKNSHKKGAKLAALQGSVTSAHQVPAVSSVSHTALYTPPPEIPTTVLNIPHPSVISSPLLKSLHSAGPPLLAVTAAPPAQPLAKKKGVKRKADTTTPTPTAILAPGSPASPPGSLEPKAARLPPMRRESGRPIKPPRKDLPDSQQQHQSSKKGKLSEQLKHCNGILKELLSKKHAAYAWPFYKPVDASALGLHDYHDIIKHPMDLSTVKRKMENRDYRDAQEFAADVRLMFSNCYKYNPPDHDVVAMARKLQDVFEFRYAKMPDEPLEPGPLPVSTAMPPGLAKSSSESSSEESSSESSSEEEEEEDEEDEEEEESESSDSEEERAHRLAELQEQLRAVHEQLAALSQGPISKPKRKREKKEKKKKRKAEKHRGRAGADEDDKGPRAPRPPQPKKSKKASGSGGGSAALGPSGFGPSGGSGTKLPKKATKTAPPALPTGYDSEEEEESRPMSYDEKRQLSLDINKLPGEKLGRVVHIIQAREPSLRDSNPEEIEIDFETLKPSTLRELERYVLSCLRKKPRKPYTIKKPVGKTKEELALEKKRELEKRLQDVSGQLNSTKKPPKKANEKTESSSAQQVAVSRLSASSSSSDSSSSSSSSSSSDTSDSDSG
Source text: as §2

SNU-16 (Stomach) = assay: WST-1 anticancer cell proliferation assay, SNU-16; assay type: cell-based; settings: 72 hours
Experimental: as §1

[1] = system: CFPAC-1 pancreatic cancer xenograft; assay: Human pancreatic cancer xenograft CFPAC-1 in scid mice; assay type: in vivo; settings: CFPAC-1 cells implanted on scid mice
Source text: The results of the anticancer activity are presented in Tables 3 and 4 (above) and in FIG. 6, Hela cells shown at (A) and CMK cells at (B) and MV4-11 and MOLT-14 acute myeloid leukemia cells.

HC-1 (Leukemia) = assay: WST-1 anticancer cell proliferation assay, HC-1; assay type: cell-based; settings: 72 hours
Experimental: as §1

BRD3 = BRD3 (Homo sapiens, UniProt Q15059); assay: Inhibition of bromodomains, BRD3; assay type: binding; settings: Table 3 Bromodomain
BRD3, sequence (Q15059 whole entry): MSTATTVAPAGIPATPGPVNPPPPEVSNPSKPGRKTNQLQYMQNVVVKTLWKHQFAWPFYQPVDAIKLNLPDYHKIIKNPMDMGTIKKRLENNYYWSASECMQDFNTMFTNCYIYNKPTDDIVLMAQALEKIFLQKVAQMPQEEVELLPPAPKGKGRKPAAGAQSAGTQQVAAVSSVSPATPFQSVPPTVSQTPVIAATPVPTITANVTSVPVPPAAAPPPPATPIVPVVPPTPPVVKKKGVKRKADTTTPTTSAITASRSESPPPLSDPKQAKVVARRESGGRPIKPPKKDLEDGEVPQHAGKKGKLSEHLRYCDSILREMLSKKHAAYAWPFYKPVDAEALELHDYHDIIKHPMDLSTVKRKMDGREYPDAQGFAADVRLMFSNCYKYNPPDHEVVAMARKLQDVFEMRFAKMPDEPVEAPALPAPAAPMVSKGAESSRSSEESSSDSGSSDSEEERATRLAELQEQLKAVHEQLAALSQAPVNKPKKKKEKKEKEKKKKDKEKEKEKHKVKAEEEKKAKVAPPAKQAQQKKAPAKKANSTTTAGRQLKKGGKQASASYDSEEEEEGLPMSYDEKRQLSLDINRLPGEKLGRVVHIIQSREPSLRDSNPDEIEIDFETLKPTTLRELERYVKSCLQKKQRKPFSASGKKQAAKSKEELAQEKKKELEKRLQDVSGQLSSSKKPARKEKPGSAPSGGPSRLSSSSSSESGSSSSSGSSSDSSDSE
Source text: as §2

BRD4 = BRD4 (Homo sapiens, UniProt O60885); assay: Inhibition of bromodomains, BRD4; assay type: binding; settings: Table 3 Bromodomain
Source text: as §2

MMP-2 = MMP-2 (Homo sapiens, UniProt P08253); assay: Inhibition of matrix metalloproteinase, MMP-2; assay type: biochemical; settings: Table 3 Matrix metalloproteinase
MMP-2, sequence (P08253 110-660): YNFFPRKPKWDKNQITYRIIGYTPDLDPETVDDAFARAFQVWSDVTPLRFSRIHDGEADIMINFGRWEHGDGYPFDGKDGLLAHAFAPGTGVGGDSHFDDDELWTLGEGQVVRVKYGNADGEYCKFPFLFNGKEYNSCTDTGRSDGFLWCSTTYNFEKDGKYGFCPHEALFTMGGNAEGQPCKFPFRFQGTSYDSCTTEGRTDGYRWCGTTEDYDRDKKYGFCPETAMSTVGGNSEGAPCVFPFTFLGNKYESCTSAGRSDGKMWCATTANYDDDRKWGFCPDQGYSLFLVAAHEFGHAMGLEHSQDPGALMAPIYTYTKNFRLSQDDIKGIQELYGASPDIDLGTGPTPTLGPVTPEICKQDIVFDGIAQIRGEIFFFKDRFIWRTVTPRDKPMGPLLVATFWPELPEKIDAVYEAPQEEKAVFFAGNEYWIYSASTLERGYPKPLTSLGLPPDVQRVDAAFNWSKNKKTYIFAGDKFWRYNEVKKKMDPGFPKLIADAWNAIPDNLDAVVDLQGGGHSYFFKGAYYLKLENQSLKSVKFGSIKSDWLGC
Source text: as §2

HeLa (cervical) = assay: WST-1 anticancer cell proliferation assay, HeLa; assay type: cell-based; settings: 72 hours
Experimental: as §1

U2-OS (Bone) = assay: WST-1 anticancer cell proliferation assay, U2-OS; assay type: cell-based; settings: 72 hours
Experimental: as §1

CMK (leukemia) = assay: WST-1 anticancer cell proliferation assay, CMK; assay type: cell-based; settings: 72 hours
Experimental: as §1

MOLT-4 (Leukemia) = assay: WST-1 anticancer cell proliferation assay, MOLT-4; assay type: cell-based; settings: 72 hours
Experimental: as §1

MMP-3 = MMP-3 (Homo sapiens, UniProt P08254); assay: Inhibition of matrix metalloproteinase, MMP-3; assay type: biochemical; settings: Table 3 Matrix metalloproteinase
MMP-3, sequence (P08254 100-477): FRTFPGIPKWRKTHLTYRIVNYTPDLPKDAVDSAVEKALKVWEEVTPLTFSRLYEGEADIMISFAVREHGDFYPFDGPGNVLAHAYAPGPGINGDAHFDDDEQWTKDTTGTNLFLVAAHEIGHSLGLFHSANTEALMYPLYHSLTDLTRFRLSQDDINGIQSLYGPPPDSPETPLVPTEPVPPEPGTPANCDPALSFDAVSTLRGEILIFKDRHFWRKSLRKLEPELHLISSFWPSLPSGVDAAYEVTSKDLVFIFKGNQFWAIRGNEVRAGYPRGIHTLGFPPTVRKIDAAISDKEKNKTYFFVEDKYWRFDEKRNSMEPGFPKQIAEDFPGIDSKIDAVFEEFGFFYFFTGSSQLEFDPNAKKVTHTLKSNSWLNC
Source text: as §2

BCL-2 = BCL-2 (Homo sapiens, UniProt P10415); assay: BCL-2 inhibition; assay type: binding; settings: Table 3
BCL-2, sequence (P10415 whole entry): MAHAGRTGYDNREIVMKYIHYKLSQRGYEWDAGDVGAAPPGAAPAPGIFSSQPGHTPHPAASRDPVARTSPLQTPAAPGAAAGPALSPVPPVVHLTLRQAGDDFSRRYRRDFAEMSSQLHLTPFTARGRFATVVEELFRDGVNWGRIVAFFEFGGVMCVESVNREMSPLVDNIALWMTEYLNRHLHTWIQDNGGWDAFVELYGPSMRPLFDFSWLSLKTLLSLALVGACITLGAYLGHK

MMP-9 = MMP-9 (Homo sapiens, UniProt P14780); assay: Inhibition of matrix metalloproteinase, MMP-9; assay type: biochemical; settings: Table 3 Matrix metalloproteinase
MMP-9, sequence (P14780 94-707): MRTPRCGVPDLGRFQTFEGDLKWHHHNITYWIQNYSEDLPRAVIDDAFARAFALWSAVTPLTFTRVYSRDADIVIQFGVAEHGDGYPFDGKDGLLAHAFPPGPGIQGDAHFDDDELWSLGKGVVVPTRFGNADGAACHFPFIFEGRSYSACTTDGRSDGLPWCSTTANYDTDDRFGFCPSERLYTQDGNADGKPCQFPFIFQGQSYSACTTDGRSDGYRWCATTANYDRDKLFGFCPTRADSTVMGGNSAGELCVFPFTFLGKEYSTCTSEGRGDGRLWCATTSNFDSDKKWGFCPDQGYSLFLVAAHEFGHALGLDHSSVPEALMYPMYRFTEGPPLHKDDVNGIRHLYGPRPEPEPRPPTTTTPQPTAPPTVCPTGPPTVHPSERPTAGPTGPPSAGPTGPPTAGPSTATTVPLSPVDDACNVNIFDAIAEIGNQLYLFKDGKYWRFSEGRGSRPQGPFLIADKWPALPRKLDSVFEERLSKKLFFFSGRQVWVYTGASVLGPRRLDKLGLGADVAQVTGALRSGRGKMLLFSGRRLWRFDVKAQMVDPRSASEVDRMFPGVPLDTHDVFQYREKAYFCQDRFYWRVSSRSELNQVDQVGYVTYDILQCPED
Source text: as §2

## COc1cc(-c2cc(=O)c3c(O)c(C/C=C(\C)CCC=C(C)C)c(O)cc3o2)ccc1O [FBL-03A]
PC-3 (Prostate)
  IC50: 26 µM
IGROV-1 (Ovarian)
  IC50: 29 µM
MiaPaca-2 (Pancreatic)
  IC50: 16 µM
A498 (Kidney)
  IC50: 17 µM
RL (Lymphoma)
  IC50: 5.9 µM
DLD-1 (Colon)
  IC50: 15 µM
UACC-62 (Melanoma)
  IC50: 27 µM
A549 (Lung)
  IC50: 17 µM
COLO-205 (Colon)
  IC50: 27 µM
MCF-7 (Breast)
  IC50: 17 µM

## COc1cc(-c2cc(=O)c3c(O)c(CC=C(C)C)c(O)cc3o2)ccc1O [FBL-03B]
MMP-7
  IC50: 17.5 µM
BRD2
  IC50: 9.52 µM
SNU-16 (Stomach)
  IC50: 15 µM
[1]
  inhibition of tumor compared to the control: significant inhibition of tumor
HC-1 (Leukemia)
  IC50: 29.7 µM
BRD3
  IC50: 7.05 µM
BRD4
  IC50: 10.4 µM
MMP-2
  IC50: 115 µM
HeLa (cervical)
  IC50: 10.4 µM
U2-OS (Bone)
  IC50: 19.4 µM
CMK (leukemia)
  IC50: 11.6 µM
MOLT-4 (Leukemia)
  IC50: 13.2 µM

## COc1cc(-c2cc(=O)c3c(O)cc(O)c(C/C=C(\C)CCC=C(C)C)c3o2)ccc1O [FBL-03C]
PC-3 (Prostate)
  IC50: 20 µM
IGROV-1 (Ovarian)
  IC50: 15 µM
MiaPaca-2 (Pancreatic)
  IC50: 9.5 µM
A498 (Kidney)
  IC50: 14 µM
RL (Lymphoma)
  IC50: 12 µM
DLD-1 (Colon)
  IC50: 13 µM
UACC-62 (Melanoma)
  IC50: 14 µM
A549 (Lung)
  IC50: 9.4 µM
COLO-205 (Colon)
  IC50: 17 µM
MCF-7 (Breast)
  IC50: 12 µM

## COc1cc(-c2cc(=O)c3c(O)cc(O)c(CC=C(C)C)c3o2)ccc1O [FBL-03G]
MMP-7
  IC50: 3.35 µM
BRD2
  IC50: 12 µM
SNU-16 (Stomach)
  IC50: 4.09 µM
[1]
  inhibition of tumor compared to the control: significant inhibition of tumor
HC-1 (Leukemia)
  IC50: 5 µM
MMP-3
  IC50: 66.3 µM
BCL-2
  IC50: 2.49 µM
BRD3
  IC50: 8.69 µM
BRD4
  IC50: 6.14 µM
MMP-2
  IC50: 6.64 µM
HeLa (cervical)
  IC50: 2.53 µM
U2-OS (Bone)
  IC50: 8.7 µM
CMK (leukemia)
  IC50: 1.78 µM
MMP-9
  IC50: 85.4 µM
MOLT-4 (Leukemia)
  IC50: 20 µM
